This is an account of results in patent publication US7945392B2, “Methods and systems for drug screening and computational modeling based on biologically realistic neurons” (McLean Hospital Corporation, priority 2005, dated 2011).

Molecules are shown by their SMILES.

For test [1] the following is noted: highly selective antagonist at the D4 receptor; cited from earlier work.
The next test has as its target D1 receptor (Homo sapiens, UniProt P21728). Kind of test: Fraction of receptors occupied, calculated from drug concentration and Ki. The settings on record: at a therapeutic olanzapine level. From the text: In particular, affinities of many drugs for receptors are well known. For example, Goodman and Gilmans “The Pharmacological Basis of Therapeutics,” Tenth Edition.

Sequence of D1 receptor (P21728 whole entry): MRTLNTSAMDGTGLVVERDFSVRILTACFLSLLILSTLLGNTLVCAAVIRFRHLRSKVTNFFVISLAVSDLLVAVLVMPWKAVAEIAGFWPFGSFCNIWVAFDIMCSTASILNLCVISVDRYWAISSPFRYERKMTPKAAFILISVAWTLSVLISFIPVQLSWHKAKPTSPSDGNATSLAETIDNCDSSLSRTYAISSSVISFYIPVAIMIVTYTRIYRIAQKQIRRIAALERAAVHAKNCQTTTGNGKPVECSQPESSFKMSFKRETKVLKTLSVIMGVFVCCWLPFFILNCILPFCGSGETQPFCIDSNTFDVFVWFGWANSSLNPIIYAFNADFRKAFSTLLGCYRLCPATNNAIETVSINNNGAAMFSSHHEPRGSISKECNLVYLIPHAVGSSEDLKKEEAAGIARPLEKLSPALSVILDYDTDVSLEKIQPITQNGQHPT

In the case of `Clc1ccc(N2CCN(Cc3c[nH]c4ncccc34)CC2)cc1` [L-745870], the antipsychotic effectiveness entry in test [1] is “ineffective”.

With `Cc1cc2c(s1)Nc1ccccc1N=C2N1CCN(C)CC1` [olanzapine], the “D1 receptors blocked (antagonized)” value at D1 receptor is recorded as “approximately 47%”.
